Laboratory results from patent US20230374076A1, “THE PREPARATION OF CERAMIDE CONJUGATES AND DERIVATIVES OF SP[…]” (KODE BIOTECH LIMITED, priority 2017, published 2023).

Tested on: red blood cells
Experiment: Incorporation of the ceramide conjugate into red blood cell membranes, fluorescence scored after labelling with Avidin Alexa Fluor 488
Type: cell-based
Description: A 50 μL volume of packed red blood cells was re-suspended in an equal volume of a dispersion in phosphate buffered saline (PBS) (pH 7.2) of the ceramide conjugate (X). The re-suspended cells were incubated at 37° C. for two hours and then washed once with PBS. The modified cells were diluted with PBS to provide a suspension at a concentration equivalent to 5% of the packed cell volume. A 30 μL volume of the diluted suspension was then mixed with an equal volume of a 0.1 mg/mL solution of Avidin Alexa Flour™ 488 in PBS. The mixture was incubated at room temperature for 30 minutes before washing and re-suspending the modified cells in PBS. The fluorescence of cells in a 5 μL volume was observed using a microscope (Olympus BX51) at 400 x magnification.
The modified cells prepared using dispersions of the ceramide conjugate (X) at different concentrations (0 (control), 0.5, 5 and 50 μM) were scored.

ceramide-β-Ala-CMG(2)-biot [ceramide conjugate (X)]
Incorporation into cell membranes (fluorescent labelling of the modified cells): spontaneously incorporated into cell membranes
